Measured values: US20230286947A1, “COMPLEMENT FACTOR B INHIBITOR, AND PHARMACEUTICAL COMPOSITION, PREPARATION METHOD AND USE THEREOF” (SHANGHAI MEIYUE BIOTECH DEVELOPMENT CO. LTD, priority 2020, published 2023)

Assays:
[1] = PK experiment of single intragastric administration to rats; format: in vivo; details: male, Wistar Han, plasma, po, rat, 3 mg/kg, mean
Experimental: Six- to nine-week-old male Wistar han rats (from Shanghai Sippe-Bk Lab Animal Co., Ltd.) were fasted overnight. Each group consisted of 3 rats, and they were given the control compound, the compound of Example 5 and the compound of Example 6, respectively, by intragastric administration at 3 mg/kg at a volume of 10 mL/kg. 0.2 mL of blood was collected from the jugular vein at each time point, anticoagulated with EDTA-K2 and immediately centrifuged at 4000 rpm at 4° C. for 5 min. The supeatant was collected. The samples were cryopreserved in a freezer at −80° C. before analysis. Time points of blood collection: before administration, 5 min 15 min, 30 min, 1 h, 2 h, 4 h, 7 h and 24 h. […] After blood collection at all of the time points was completed, the animals were euthanized. The plasma samples were analyzed by LC-MS/MS. The data were used to calculate kinetic parameters (Tmax, Cmax, T½ and AUC) in the WinNonlin software.

[2] = tested on: Streptococcus-induced rheumatoid arthritis; experiment: Streptococcus-induced rheumatoid arthritis (RA) model in rats; format: in vivo, Lewis rats; details: 15 mpk intragastric daily for 25 days, FIG. 3
Experimental: In the experiment, six- to nine-week-old female Lewis rats (Beijing Vital River) were used. Each group consisted of 6 rats, and they were given the cell wall peptidoglycan complexes of Streptococcus and several other species of bacteria by intraperitoneal administration (2-3 mg per rat) on D1, and were given the control compound (15 mpk) and Example 5 (15 mpk) by intragastric administration daily for 25 consecutive days. The arthritis in rats was scored in different phases. The scoring criteria are as follows: Scoring according to the degree of lesion (redness and swelling) was performed on a scale of 0-4 points, with a maximum score of 4 for each limb and a total maximum score of 16 for each animal's limbs. The scoring criteria are as follows: 0 points: no redness and swelling; 1 point: 1-2 red and swollen interphalangeal joints; 2 points: 3-4 red and swollen interphalangeal joints; 3 points: more than 4 red and swollen interphalangeal joints; 4 points: severe redness and swelling in toes or fingers to ankle joints or wrist joints.

[3] = target: T1, complement factor B in human serum (Homo sapiens, UniProt P00751); experiment: Complement hemolytic activity assay (rabbit erythrocytes, normal human serum); format: cell-based; details: for IC50: rabbit erythrocytes, normal human serum, 37° C., read-out: Hemolysis IC50
T1 construct: from tissue; host or cells: normal human serum (NHS)
Experimental: The hemolysis experiment was carried out by referring to the description in Xuan Yuan et al., Haematologica. […] Prior to the experiment, the optimal concentration of normal human serum (NHS) required to achieve 100% lysis of rabbit erythrocytes (REs) was obtained by titration testing. […] REs (collected from healthy Japanese big-ear white rabbits) freshly suspended in a GVBO buffer comprising 10 mM Mg-EGTA were added to a final concentration of 1×10^8 cells/mL and incubated at 37° C. for 30 min. A GVBO buffer comprising 10 mM Mg-EGTA and comprising NHS and RE but no test compound was used as a positive control group (100% lysis). A GVBO buffer comprising 10 mM Mg-EGTA and comprising inactivated NHS (heated at 56° C. for 30 min or at 65° C. for 5 min) and RE but no test compound was used as a negative control group (0% lysis). The samples were centrifuged at 2000 g for 5 min, and the supernatant was collected. Absorbance at 415 nm (A415) was measured using a microplate reader (Molecular Devices, SpectraMax i3X). IC50 values were calculated from percent hemolysis as a function of test compound concentration by non-linear regression.

[4] = target: Complement factor B (Homo sapiens, UniProt P00751); experiment: Optical surface plasmon resonance (SPR) binding capacity assay; details: for Rmax (RU): test compound 500 μM, 25° C., 1:1 binding model; for binding capacity to the target protein compared with the control compound: at a concentration of 500 μM
Experimental: An SPR experiment was carried out at 25° C. In the experiment, a PBS buffer supplemented with 0.05% (v/v) P20 and 5% DMSO was used as a running buffer, and the analytical instrument Biacore 8K of GE Healthcare was used. A CM7 ship (GE Healthcare) was activated with 400 mM EDC and 100 mM NHS at a flow rate of 30 μL/min for 420 s. […] Then the assay chip was treated with 1 M ethanolamine hydrochloride at a flow rate of 10 μL/min for 300 s for chip blocking. The concentration of the test compound was 500 μM, the binding time was 120 s, and the dissociation time was 300 s. Data analysis was performed using a 1:1 binding model (Biacore Insight Evalution Software, Version 2.0.15.12933).

[5] = Liver microsomal stability experiment (rat); format: in vitro ADME; details: for half-life at 1 µM: SD, pH 7.4, NADPH, read-out: MMS (rat) T1/2; for half-life at 1 µM / MMS (rat) Remaining (T = 90 min): rat liver microsomes; for liver microsomal stability (in words): statement covers rat, monkey and human liver microsomes (Table 3)
Experimental: (§1) A 0.1 M solution of potassium dihydrogen phosphate in distilled water (comprising 1 mM ethylenediaminetetraacetic acid) was taken. Then the pH was adjusted to 7.4 with the 0.1 M solution of dipotassium phosphate in distilled water (comprising 1 mM ethylenediaminetetraacetic acid).
Rat: SD Rat Liver Microsomes, Cat. No.: LM-DS-02M, RILD Research Institute for Liver Diseases (Shanghai) Co. Ltd.
(§2) A 10 mM solution of each of the control compound and test compounds was prepared in DMSO. Then 10 μL of the solution was added to 190 μL of acetonitrile to form a 0.5 mM mother liquor. 1.5 μL of the 0.5 mM compound mother liquor was measured out, and […] of 20 mg/mL liver microsomes and 479.75 μL of the buffer were added. (The actual preparation amount can be adjusted according to use).
(§3) A 10 mg/mL solution of reduced coenzyme II (NADPH) was prepared in the buffer. A 96-well plate was placed on ice. Wells corresponding to different time points (0, 10, 30, 60 and 90 min, Non-NADPH) were set for each compound. 30 μL of the working solution was added to each well. For 0 min wells, 155 μL of glacial acetonitrile solution (the internal standard concentration was 1 μM) was added first, and after the mixtures were well mixed using a pipet, 15 μL of NADPH (10 mg/mL) was added. Before the reactions were started, the 96-well plate was pre-incubated on a microplate shaker at 37° C. for 5 min. Then 15 μL of NADPH (10 mg/mL) was added to each well to start the metabolic reactions. After the reactions were carried out for 10, 30, 60 and 90 min, 155 μL of glacial acetonitrile solution (the internal standard concentration was 1 μM) was added to the corresponding wells to terminate the reactions. After 90 min, the reaction in the Non-NADPH system was terminated by adding 155 μL of glacial acetonitrile solution (the internal standard concentration was 1 μM). After the reaction was completed, the 96-well plate was shaken on a microplate shaker (600 rpm) for 10 min and then centrifuged at 4° C. at 4000 g for 15 min. 50 μL of the supernatant was added to a new 2 mL 96-well plate, and 300 μL of deionized water was added. The mixture was analyzed on an AB SCIEX ExionLC-Triple Quad 5500 high performance liquid chromatograph-mass spectrometer. The Analyst 1.6.3 software was used.

[6] = Liver microsomal stability experiment (monkey); format: in vitro ADME; details: cynomolgus monkey liver microsomes; for half-life at 1 µM: pH 7.4, NADPH, read-out: MMS (monkey) T1/2
Experimental: as §1
Monkey: Cynomolgus Monkey Liver Microsomes, Cat. No.: LM-SXH-02M, RILD Research Institute for Liver Diseases (Shanghai) Co. Ltd.
as §2, §3

[7] = Liver microsomal stability experiment (human); format: in vitro ADME; details: for MMS (human) Remaining (T = 90 min): human liver microsomes; for half-life at 1 µM: pooled liver microsomes, pH 7.4, NADPH, read-out: MMS (human) T1/2
Experimental: as §1
Human – Pooled Human Liver Microsomes (Mongolian), Cat. No.: LM-R-02M, RILD Research Institute for Liver Diseases (Shanghai) Co. Ltd.
as §2, §3

[8] = PK/PD experiment of single intragastric administration to cynomolgus monkeys: plasma concentration; format: in vivo; details: same dose (3 & 30 mpk), FIG. 1
Experimental: Cynomolgus monkeys were used. Each group consisted of 3 cynomolgus monkeys, and they were given the control compound and the compound of Example 5 (3 & 30 mpk) by intragastric administration. Blood was collected at different time points and analyzed for drug concentration and complement activity. The drug concentration in plasma was determined by LC-MS/MS. The complement activity in serum was determined using a wieslab assay (Svar Life Science AB, COMPL AP330 RUO) kit, Normal Human Serum (Complement Technology, NHS).

T1 sequence (P00751 26-764): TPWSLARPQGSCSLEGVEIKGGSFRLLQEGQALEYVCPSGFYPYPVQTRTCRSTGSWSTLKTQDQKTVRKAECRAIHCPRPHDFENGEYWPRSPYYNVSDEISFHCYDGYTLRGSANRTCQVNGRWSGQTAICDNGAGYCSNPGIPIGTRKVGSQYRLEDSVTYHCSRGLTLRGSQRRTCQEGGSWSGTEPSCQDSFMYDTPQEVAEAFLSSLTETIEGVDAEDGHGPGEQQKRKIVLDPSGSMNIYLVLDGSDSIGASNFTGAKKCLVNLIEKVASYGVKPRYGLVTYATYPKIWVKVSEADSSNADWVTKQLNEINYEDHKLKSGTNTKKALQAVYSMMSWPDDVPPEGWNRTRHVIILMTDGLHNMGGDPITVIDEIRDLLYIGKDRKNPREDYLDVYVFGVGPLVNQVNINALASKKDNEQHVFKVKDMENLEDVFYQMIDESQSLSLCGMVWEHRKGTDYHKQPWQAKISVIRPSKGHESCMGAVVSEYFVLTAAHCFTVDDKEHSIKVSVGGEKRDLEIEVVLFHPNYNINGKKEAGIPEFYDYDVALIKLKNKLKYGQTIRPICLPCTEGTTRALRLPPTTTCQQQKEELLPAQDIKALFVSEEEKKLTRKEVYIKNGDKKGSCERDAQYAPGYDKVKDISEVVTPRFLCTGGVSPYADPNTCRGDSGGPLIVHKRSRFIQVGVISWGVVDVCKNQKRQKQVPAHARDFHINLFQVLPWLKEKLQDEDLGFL
Complement factor B, sequence (P00751 26-764): as above

CCO[C@H]1CCN(Cc2c(OC)cc(C)c3[nH]ccc23)[C@H](c2ccc(C(=O)O)cc2)C1 [Control compound, reference compound]
AUC(0-inf) [1]: 2730 ng·h/mL | AUC(0-t) [1]: 2530 ng·h/mL | Cmax [1]: 784 ng/mL | Tmax [1]: 19.8 min | half-life [1]: 145 min | arthritis score [2]: can improve the arthritis score

COc1cc(C)c2[nH]ccc2c1CN1CC[C@H](OC2CC2)C[C@H]1c1ccc(C(=O)O)cc1 [Example 3]
IC50 [3]: 216 nM

COc1cc(C)c2[nH]ccc2c1CN1CC[C@H](OC2CCC2)C[C@H]1c1ccc(C(=O)O)cc1 [Example 4]
Rmax (RU) [4]: 29.1 RU | IC50 [3]: 280 nM | half-life at 1 µM [5]: 221 min | MMS (rat) Remaining (T = 90 min) [5]: 72.23% | liver microsomal stability (in words) [5]: more significant liver microsomal stability | MMS (monkey) Remaining (T = 90 min) [6]: 80.68% | half-life at 1 µM [6]: 364 min | MMS (human) Remaining (T = 90 min) [7]: 84.79% | half-life at 1 µM [7]: 416 min

COc1cc(C)c2[nH]ccc2c1CN1CC[C@H](OCC2CC2)C[C@H]1c1ccc(C(=O)O)cc1 [Example 5]
binding capacity to the target protein compared with the control compound [4]: significantly better than the control compound | Rmax (RU) [4]: 274.2 RU | inhibitory activity against complement factor B in human serum compared with the control compound ([3]; hemolysis of rabbit erythrocytes): significantly better inhibitory activity against complement factor B in human serum than the control compound | IC50 [3]: 87.9 nM | half-life at 1 µM [5]: 548 min | MMS (rat) Remaining (T = 90 min) [5]: 89.14% | liver microsomal stability (in words) [5]: more significant liver microsomal stability | MMS (monkey) Remaining (T = 90 min) [6]: 93.32% | half-life at 1 µM [6]: 770 min | MMS (human) Remaining (T = 90 min) [7]: 91.04% | half-life at 1 µM [7]: 673 min | AUC(0-inf) [1]: 3280 ng·h/mL | AUC(0-t) [1]: 3120 ng·h/mL | Cmax [1]: 1920 ng/mL | Tmax [1]: 15 min | half-life [1]: 94.8 min | mean plasma concentration compared with the control compound [8]: significantly higher mean plasma concentration than the control compound | arthritis score [2]: can improve the arthritis score | effect on arthritis score compared with the control compound [2]: significantly better effect than the control compound

COc1cc(C)c2[nH]ccc2c1CN1CC[C@H](OCC2CCC2)C[C@H]1c1ccc(C(=O)O)cc1 [Example 6]
binding capacity to the target protein compared with the control compound [4]: significantly better than the control compound | Rmax (RU) [4]: 106.5 RU | IC50 [3]: 217 nM | half-life at 1 µM [5]: 59.2 min | MMS (rat) Remaining (T = 90 min) [5]: 33.55% | liver microsomal stability (in words) [5]: more significant liver microsomal stability | MMS (monkey) Remaining (T = 90 min) [6]: 60.37% | half-life at 1 µM [6]: 130 min | MMS (human) Remaining (T = 90 min) [7]: 74.57% | half-life at 1 µM [7]: 237 min | AUC(0-inf) [1]: 2260 ng·h/mL | AUC(0-t) [1]: 2190 ng·h/mL | Cmax [1]: 1180 ng/mL | Tmax [1]: 15 min | half-life [1]: 137 min

COc1cc(C)c2[nH]ccc2c1CN1CC[C@H](OC(F)(F)F)C[C@H]1c1ccc(C(=O)O)cc1 [Example 7]
Rmax (RU) [4]: 21.6 RU | IC50 [3]: 228 nM

COc1cc(C)c2[nH]ccc2c1CN1CCC2(CC1c1ccc(C(=O)O)cc1)CC2(F)F (stereo not shown) [Example 8]
Rmax (RU) [4]: 47.7 RU | IC50 [3]: 358 nM

COc1cc(C)c2[nH]ccc2c1CN1CCC(C(F)(F)F)CC1c1ccc(C(=O)O)cc1 (stereo not shown) [Example 9]
Rmax (RU) [4]: 23.3 RU | IC50 [3]: 725 nM

COc1cc(C)c2[nH]ccc2c1CN1CCC(C(F)F)CC1c1ccc(C(=O)O)cc1 (stereo not shown) [Example 10]
Rmax (RU) [4]: 30.7 RU | IC50 [3]: 611 nM

COc1cc(C)c2[nH]ccc2c1CN1CC[C@H](OC2CC(F)(F)C2)C[C@H]1c1ccc(C(=O)O)cc1 [Example 16]
IC50 [3]: 188 nM

COc1cc(C)c2[nH]ccc2c1CN1CCC(C)(F)CC1c1ccc(C(=O)O)cc1 (stereo not shown) [Example 17]
IC50 [3]: 391 nM

COc1cc(C)c2[nH]ccc2c1CN1CCC2CC2[C@H]1c1ccc(C(=O)O)cc1 (stereo partly shown) [Example 22]
IC50 [3]: 184 nM

CCOC1CC(c2ccc(C(=O)O)cc2)N(Cc2c(OC)cc(C)c3[nH]ccc23)C2CC12 (stereo not shown) [Example 23]
IC50 [3]: 853 nM

COc1cc(C)c2[nH]ccc2c1CN1CC[C@H](OCC2CC2(F)F)C[C@H]1c1ccc(C(=O)O)cc1 (stereo partly shown) [Example 25]
IC50 [3]: 234 nM

COc1cc(C)c2[nH]ccc2c1CN1CC[C@H](OCC2CC2)C[C@H]1c1ccc(-c2nn[nH]n2)cc1 [Example 26]
IC50 [3]: 319 nM
